Data published in ChEMBL document CHEMBL1127135, “Synthesis and biological properties of 3-[()-2-(1,2,3-Thiadiazolyl)ethenyl]-substituted cephalosporins and related compounds: new oral cephalosporins” (Bioorg Med Chem Lett, 1993).
In brackets after ≈: the same amount, converted by molar mass.

How the values were obtained:
[1] = system: Pseudomonas aeruginosa; experiment: Antibacterial activity against Pseudomonas aeruginosa NCTC 10490 was determined; format: functional
[2] = system: Enterobacter cloacae; experiment: Antibacterial activity against Enterobacter cloacae 963 was determined; format: functional
[3] = system: Enterococcus hirae; experiment: Antibacterial activity against Enterococcus hirae ATCC 8043 was determined; format: functional
[4] = system: Escherichia coli; experiment: Antibacterial activity against Escherichia coli ATCC 25922 was determined; format: functional
[5] = system: Klebsiella pneumoniae; experiment: Antibacterial activity against Klebsiella pneumoniae IFO 3317 was determined; format: functional
[6] = system: Morganella morganii; experiment: Antibacterial activity against Morganella morganii IID 602 was determined; format: functional
[7] = system: Staphylococcus aureus; experiment: Antibacterial activity against Staphylococcus aureus Smith was determined; format: functional
[8] = system: Escherichia coli; experiment: Antibacterial activity against Escherichia coli NIHJ JC-2 was determined; format: functional
[9] = system: Klebsiella aerogenes; experiment: Antibacterial activity against Enterobacter aerogenes IFO 13048 was determined; format: functional
[10] = system: Staphylococcus epidermidis; experiment: Antibacterial activity against Staphylococcus epidermidis IID 866 was determined; format: functional
[11] = system: Staphylococcus aureus; experiment: Antibacterial activity against Staphylococcus aureus 209P-JC was determined; format: functional
[12] = system: Proteus mirabilis; experiment: Antibacterial activity against Proteus mirabilis IFO3849 was determined; format: functional
[13] = system: Serratia marcescens; experiment: Antibacterial activity against Serratia marcescens IID 618 was determined; format: functional
[14] = system: Moraxella catarrhalis; experiment: Antibacterial activity against M(B). catarrhalis AtCC 25238 was determined; format: functional
[15] = system: Providencia rettgeri; experiment: Antibacterial activity against Providencia rettgeri IFO3850 was determined; format: functional
[16] = system: Micrococcus luteus; experiment: Antibacterial activity against Micrococcus luteus ATCC 9341 was determined; format: functional
[17] = system: Proteus vulgaris; experiment: Antibacterial activity against Proteus vulgaris HX-19 was determined; format: functional
[18] = system: Staphylococcus aureus; experiment: Antibacterial activity against Staphylococcus aureus ATCC 25923 was determined; format: functional
[19] = Evaluated for pharmacokinetic parameter area under curve in rabbit at the dose 20 mg/kg (0-4 hr ); format: ADME, organism-based, Oryctolagus cuniculus; parameters: time < 4 hr, dose 20 mg/kg; conditions: in vivo
[20] = Evaluated for pharmacokinetic parameter urine recovery in mouse at the dose 20 mg/kg (0-24 hr); format: ADME, organism-based; parameters: dose 20 mg/kg; conditions: read-out: UR
[21] = system: Streptococcus pneumoniae; experiment: Antibacterial activity against Streptococcus pneumoniae IID 553 was determined; format: functional
[22] = Evaluated for pharmacokinetic parameter half-life in mouse at the dose 20 mg/kg; format: ADME, organism-based; parameters: dose 20 mg/kg; conditions: in vivo
[23] = Evaluated for pharmacokinetic parameter area under curve in rat at the dose 50 mg/kg (0-8 hr ); format: ADME, organism-based; parameters: time < 8 hr, dose 50 mg/kg; conditions: in vivo
[24] = system: Haemophilus influenzae; experiment: Antibacterial activity against Haemophilus influenzae ATCC 19418 was determined; format: functional
[25] = Evaluated for pharmacokinetic parameter area under curve in mouse at the dose 20 mg/kg (0-4 hr ); format: ADME, organism-based; parameters: time < 4 hr, dose 20 mg/kg; conditions: in vivo
[26] = system: Morganella morganii; experiment: Antibacterial activity against Morganella morganii IID 602; format: functional
[27] = Evaluated for pharmacokinetic parameter Cmax in rat at the dose 50 mg/kg; format: ADME, organism-based; parameters: dose 50 mg/kg; conditions: in vivo
[28] = system: Moraxella catarrhalis; experiment: Antibacterial activity against M(B). catarrhalis ATCC 25238 was determined; format: functional
[29] = Evaluated for pharmacokinetic parameter tmax in rat at the dose 50 mg/kg; format: ADME, organism-based; parameters: dose 50 mg/kg; conditions: in vivo
[30] = Evaluated for pharmacokinetic parameter half-life in rat at the dose 50 mg/kg; format: ADME, organism-based; parameters: dose 50 mg/kg; conditions: in vivo
[31] = Evaluated for pharmacokinetic parameter Cmax in rabbit at the dose 20 mg/kg; format: ADME, organism-based, Oryctolagus cuniculus; parameters: dose 20 mg/kg; conditions: in vivo
[32] = Evaluated for pharmacokinetic parameter tmax in mouse at the dose 20 mg/kg was determined; format: ADME, organism-based; parameters: dose 20 mg/kg; conditions: in vivo
[33] = Evaluated for pharmacokinetic parameter tmax in rabbit at the dose 20 mg/kg; format: ADME, organism-based, Oryctolagus cuniculus; parameters: dose 20 mg/kg; conditions: in vivo
[34] = Evaluated for pharmacokinetic parameter half-life in rabbit at the dose 20 mg/kg; format: ADME, organism-based, Oryctolagus cuniculus; parameters: dose 20 mg/kg; conditions: in vivo
[35] = Evaluated for pharmacokinetic parameter urine recovery in rat at the dose 50 mg/kg (0-24 hr); format: ADME, organism-based; parameters: dose 50 mg/kg; conditions: read-out: UR
[36] = Evaluated for pharmacokinetic parameter urine recovery in rabbit at the dose 20 mg/kg (0-24 hr); format: ADME, organism-based, Oryctolagus cuniculus; parameters: dose 20 mg/kg; conditions: read-out: UR
[37] = Evaluated for pharmacokinetic parameter Cmax in mouse at the dose 20 mg/kg; format: ADME, organism-based; parameters: dose 20 mg/kg; conditions: in vivo
[38] = Evaluated for pharmacokinetic parameter area under curve in rat at the dose 50 mg/kg (0-8 hr); format: ADME, organism-based; parameters: time < 8 hr, dose 50 mg/kg; conditions: in vivo
[39] = system: Klebsiella pneumoniae; experiment: Antibacterial activity against Klebsiella pneumoniae IFO 331 was determined; format: functional
[40] = Evaluated for pharmacokinetic parameter tmax in mouse at the dose 20 mg/kg; format: ADME, organism-based; parameters: dose 20 mg/kg; conditions: in vivo
[41] = Evaluated for pharmacokinetic parameter urine recovery in rabbit at the dose 20 mg/kg ( 0-24 hr ); format: ADME, organism-based, Oryctolagus cuniculus; parameters: dose 20 mg/kg; conditions: read-out: UR
[42] = Evaluated for pharmacokinetic parameter urine recovery in rat at the dose 50 mg/kg ( 0-24 hr ); format: ADME, organism-based; parameters: dose 50 mg/kg; conditions: read-out: UR
[43] = Evaluated for pharmacokinetic parameter area under curve in mouse at the dose 20 mg/kg (0-4 hr); format: ADME, organism-based; parameters: time < 4 hr, dose 20 mg/kg; conditions: in vivo
[44] = system: Micrococcus luteus; experiment: Antibacterial activity against Micrococcus […] determined; format: functional
[45] = Evaluated for pharmacokinetic parameter urine recovery in mouse at the dose 20 mg/kg ( 0-24 hr ); format: ADME, organism-based; parameters: dose 20 mg/kg; conditions: read-out: UR

| MIC [1] [µg/mL] | MIC [2] [µg/mL] | MIC [3] [µg/mL] | MIC [4] [µg/mL] | MIC [5] [µg/mL] | MIC [6] [µg/mL] | MIC [7] [µg/mL] | MIC [8] [µg/mL] | MIC [9] [µg/mL] | MIC [10] [µg/mL] | MIC [11] [µg/mL] | MIC [12] [µg/mL] | MIC [13] [µg/mL] | MIC [15] [µg/mL] | MIC [16] [µg/mL] | MIC [17] [µg/mL] | MIC [18] [µg/mL] | AUC at 4 h [19] [ng·h/mL] | MIC [21] [µg/mL] | MIC [28] [µg/mL] | SMILES | further results |
| --- | --- | --- | --- | --- | --- | --- | --- | --- | --- | --- | --- | --- | --- | --- | --- | --- | --- | --- | --- | --- | --- |
| 50 (≈ 101 µM) | 0.39 (≈ 0.79 µM) | 100 (≈ 203 µM) | 0.39 (≈ 0.79 µM) | 0.012 (≈ 0.0243 µM) | 0.1 (≈ 0.203 µM) | 0.39 (≈ 0.79 µM) | 0.39 (≈ 0.79 µM) | 0.78 (≈ 1.58 µM) | 0.2 (≈ 0.405 µM) | 0.78 (≈ 1.58 µM) | 0.1 (≈ 0.203 µM) | 0.39 (≈ 0.79 µM) | ≤ 0.006 | 0.05 (≈ 0.101 µM) | ≤ 0.006 | 0.78 (≈ 1.58 µM) |  |  |  | CO/N=C(\C(=O)NC1C(=O)N2C(C(=O)O)=C(/C=C\c3csnn3)CSC12)c1csc(N)n1 (stereo unspecified) | MIC [14]: 0.025 µg/mL (≈ 0.0507 µM) |
| > 100 | 0.2 (≈ 0.417 µM) | 12.5 (≈ 26.1 µM) | 0.1 (≈ 0.209 µM) | 0.012 (≈ 0.025 µM) |  | 0.1 (≈ 0.209 µM) | 0.1 (≈ 0.209 µM) | 0.2 (≈ 0.417 µM) | 0.05 (≈ 0.104 µM) | 0.1 (≈ 0.209 µM) | 0.05 (≈ 0.104 µM) | 0.39 (≈ 0.813 µM) | ≤ 0.006 | 0.012 (≈ 0.025 µM) | 0.05 (≈ 0.104 µM) | 0.39 (≈ 0.813 µM) | 9700 | 0.05 (≈ 0.104 µM) | 0.05 (≈ 0.104 µM) | Nc1nc(/C(=N/O)C(=O)NC2C(=O)N3C(C(=O)O)=C(/C=C\c4csnn4)CSC23)cs1 (stereo unspecified) | dose excreted [20]: 1.9%; half-life [22]: 0.7 h; AUC at 8 h [23]: 19800 ng·h/mL; MIC [24]: 0.05 µg/mL (≈ 0.104 µM); AUC at 4 h [25]: 4700 ng·h/mL; MIC [26]: 0.025 µg/mL (≈ 0.0521 µM); Cmax [27]: 6000 ng/mL; Tmax [29]: 2 h; half-life [30]: 4.4 h; Cmax [31]: 2000 ng/mL; Tmax [32]: 2 h; Tmax [33]: 2 h; half-life [34]: 2.2 h; dose excreted [35]: 3.5%; dose excreted [36]: 17.4%; Cmax [37]: 1500 ng/mL |
| 12.5 (≈ 24.7 µM) | 0.78 (≈ 1.54 µM) | > 100 | 0.39 (≈ 0.77 µM) | 0.025 (≈ 0.0493 µM) | 0.2 (≈ 0.395 µM) | 0.78 (≈ 1.54 µM) | 0.39 (≈ 0.77 µM) | 0.78 (≈ 1.54 µM) | 0.39 (≈ 0.77 µM) | 0.78 (≈ 1.54 µM) | 0.39 (≈ 0.77 µM) | 0.39 (≈ 0.77 µM) | 0.025 (≈ 0.0493 µM) | 0.025 (≈ 0.0493 µM) | ≤ 0.006 | 0.78 (≈ 1.54 µM) |  |  | ≤ 0.006 | CO/N=C(\C(=O)NC1C(=O)N2C(C(=O)O)=C(/C=C\c3scnc3C)CSC12)c1csc(N)n1 (stereo unspecified) |  |
| > 100 | 0.78 (≈ 1.97 µM) | 100 (≈ 253 µM) | 0.39 (≈ 0.986 µM) |  | 6.25 (≈ 15.8 µM) | 0.2 (≈ 0.506 µM) | 0.39 (≈ 0.986 µM) | 1.56 (≈ 3.95 µM) | 0.1 (≈ 0.253 µM) | 0.39 (≈ 0.986 µM) | 0.2 (≈ 0.506 µM) | 1.56 (≈ 3.95 µM) | ≤ 0.006 |  | 0.39 (≈ 0.986 µM) | 0.39 (≈ 0.986 µM) | 64200 | 0.1 (≈ 0.253 µM) | 0.2 (≈ 0.506 µM) | C=CC1=C(C(=O)O)N2C(=O)[C@@H](NC(=O)/C(=N\O)c3csc(N)n3)[C@H]2SC1 [CEFDINIR] | AUC at 8 h [38]: 13200 ng·h/mL; MIC [39]: 0.1 µg/mL (≈ 0.253 µM); half-life [22]: 0.6 h; MIC [24]: 0.39 µg/mL (≈ 0.986 µM); Cmax [27]: 6000 ng/mL; Tmax [40]: 1 h; Tmax [29]: 2 h; half-life [30]: 1.5 h; dose excreted [41]: 64.2%; dose excreted [42]: 13.2%; Cmax [31]: 5800 ng/mL; AUC at 4 h [43]: 10000 ng·h/mL; Tmax [33]: 1 h; half-life [34]: 1.9 h; MIC [44]: 0.05 µg/mL (≈ 0.126 µM); Cmax [37]: 2500 ng/mL; dose excreted [45]: 10% |
